Series [1] relates to A2780 cells. Nature of the series: Induction of apoptosis, Annexin V-FITC/PI staining. The format is cell-based, human. The settings on record: A2780, half-cytotoxic concentration, 24 h. The procedure:
(§1) The induction of cell death by complex (1) was studied by two methods in the A2780 cell line. Firstly, the induction of apoptosis was tested using an Annexin V-FITC/PI commercial kit (V13242, Thermo Fisher Scientific, USA). Second, caspase 3/7 activation was monitored using the CellEvent™ Caspase-3/7 Green Flow Cytometry Assay Kit (C10427, Thermo Fisher Scientific, USA). Both assays were performed according to the manufacturers’ protocols with one modification in the caspase induction assay: the use of CellEvent^TM Caspase-3/7 Green Detection Reagent was only for the detection of caspase 3/7 activation. The general procedure was as follows: 5 × 10^4 cells per well were seeded in a 24-well cell culture plate, and after 24 h, the cells were treated with 4 µM solution of complex (1) and cultivated for next 24 h. […] The trypsin was blocked by adding the cell culture medium to a final volume of 500 µL, and the resulting cell suspensions were divided into two separate 250 µL aliquots. The first set of aliquots was used to evaluate the Annexin V-FITC/PI assay, whilst the second one was used for the caspase 3/7 activation assay. Both assays were performed using a BD FACSVerse flow cytometer (Becton Dickinson, USA) in three independent experiments, each performed in duplicate.

Series [2] has as its system MRC5 human fetal fibroblasts. Nature of the series: In vitro cytotoxicity (MTT assay), normal MRC-5 fibroblasts. The format is cell-based. The settings on record: ± standard deviation, triplicate, read-out: IC50, MRC5 (healthy cells). The procedure:
(§2) The testing was performed on the ovarian carcinoma (A2780), Cisplatin-resistant ovarian carcinoma (A2780R), prostate adenocarcinoma (PC-3), prostate carcinoma (22Rv1), and leukemia monocytic (THP-1) and intestinal colon adenocarcinoma (LS180) human cell lines that were obtained from the ATCC collection of cell lines and cultivated according to the producer’s instructions. The reference normal cell line of human fetal fibroblasts (MRC-5) was obtained from the same commercial source and maintained according to the producer’s instructions. The half-maximal inhibitory concentrations (IC50) were calculated from dose–response curves by means of the GraphPad Prism 6 software (GraphPad Software, San Diego, CA, USA).

Series [3] concerns A2780 cells. Kind of series: Time-dependent cellular uptake of gold (ICP-MS). The format is in vitro ADME, human. The procedure: Figure 3 The intracellular gold concentration levels caused by the incubation of [Au(kin)(PPh3)] (1), [Au(PPh3)Cl], and Auranofin with A2780 cells after 2 h, 6 h, 12 h, 24 h, 48 h, and 72 h. The results were obtained by ICP-MS analyses of three parallel samples and are shown as mean values with error bars corresponding to the standard deviation values of the gold concentration expressed in ng of gold per 10^6 cells. TEXT PRINTED IN THE PICTURE: [Au(kin)PPh3] (1): Intracellular Au content [ng/10^6 cells]: 121.3; Intracellular Au content [ng/10^6 cells]: 97.1; Intracellular Au content [ng/10^6 cells]: 88.8; Intracellular Au content [ng/10^6 cells]: 89.4; Intracellular Au content [ng/10^6 cells]: 287.5; Intracellular Au content [ng/10^6 cells]: 352.9 | Auranofin: Intracellular Au content [ng/10^6 cells]: 182.5; Intracellular Au content [ng/10^6 cells]: 231.1; Intracellular Au content [ng/10^6 cells]: 361.3; Intracellular Au content [ng/10^6 cells]: 333.9; Intracellular Au content [ng/10^6 cells]: 555.3; Intracellular Au content [ng/10^6 cells]: 320.2 | [Au(PPh3)Cl]: Intracellular Au content [ng/10^6 cells]: 84.6; Intracellular Au content [ng/10^6 cells]: 106.1; Intracellular Au content [ng/10^6 cells]: 80.7; Intracellular Au content [ng/10^6 cells]: 97.6; Intracellular Au content [ng/10^6 cells]: 304.2; Intracellular Au content [ng/10^6 cells]: 415.8 DOUBTS OF THE COPYIST ABOUT THIS PICTURE: Point labels are black, not coloured by series. Where the [Au(kin)PPh3] (1) and [Au(PPh3)Cl] curves run close together, I assigned the labels by their position above or below the points: 97.1/106.1, 88.8/80.7, 89.4/97.6 and 287.5/304.2. These assignments are not fully certain. / No incubation time is printed beside any point label, only on the axis, so no time condition is given with the values.

In series [4] the test system is A2780 cells. Nature of the series: Cell cycle analysis (flow cytometry). The settings on record: A2780, half-cytotoxic concentration, 24 h. The format is cell-based, human. The procedure: After 24 h, the cells were treated with a 4 µM solution of complex (1) and cultivated for the next 24 h. Then, the cells were washed once with PBS (0.1 M, pH 7.4), and cell cycle analysis was performed using a BD Cycletest^TM Plus DNA kit (Becton Dickinson, Franklin Lakes, NJ, USA) according to the manufacturer’s protocol. The data were acquired using a BD FACSVerse flow cytometer (Becton Dickinson, USA) in three independent experiments, each performed in duplicate, while at least 5 × 10^3 events were recorded for each sample.

Series [5] concerns PC-3 prostate adenocarcinoma cells. Kind of series: In vitro cytotoxicity (MTT assay), PC-3. The settings on record: ± standard deviation, triplicate. The series is classed as cell-based, human. Here is the method:
as §2

Another series relates to caspases 3/7. Kind of series: Caspase 3/7 activation (flow cytometry). The format is cell-based, human. The settings on record: A2780, half-cytotoxic concentration, 24 h. Here is the method: as §1
In another series the test system is NF-κB. Kind of series: NF-κB activity in LPS-challenged cells (SEAP reporter). The settings on record: 100 nM, 1 h pre-treatment, LPS 24 h, THP1-Blue NF-κB monocytes. The series is classed as cell-based, human. Here is the method:
The effect of the tested compounds to influence the function of transcription factor NF-κB was determined on lipopolysaccharide (LPS)-challenged THP1-Blue™ NF-κB cells as we described previously. […] After 24 h incubation, the activity of NF-κB was determined as the amount of secreted embryonic alkaline phosphatase using Quanti-Blue™ medium (Invivogen).

Series [6] deals with A2780 ovarian carcinoma cells. Kind of series: In vitro cytotoxicity (MTT assay), A2780. The series is classed as cell-based, human. Here is the method: The reference normal cell line of human fetal fibroblasts (MRC-5) was obtained from the same commercial source and maintained according to the producer’s instructions. The half-maximal inhibitory concentrations (IC50) were calculated from dose–response curves by means of the GraphPad Prism 6 software (GraphPad Software, San Diego, CA, USA).

[7] abbreviates: MTT, 24 h incubation, ± standard deviation, triplicate, read-out: IC50, A2780.

Where two headings read alike, the source gives them in different places.

For the compound `CC[PH](CC)(CC)[Au][S][C@@H]1O[C@H](COC(C)=O)[C@@H](OC(C)=O)[C@H](OC(C)=O)[C@H]1OC(C)=O` [Auranofin, [3,4,5-triacetyloxy-6-(acetyloxymethyl)-oxane-2-thiolate-(triethylphosphine)gold(I)]], the “Cells in late stage apoptosis (Annexin V+/PI+)” value in the series with A2780 cells [1] is recorded as “around 80%”. In addition, the IC50 in series [2] worked out at 3.78 ± 0.01 µM; in series [5] it was 3.7 ± 0.7 µM; in series [6] (24 h incubation, read-out: Time-dependent in vitro cytotoxicity (IC50), A2780, 24 h), 3.4 ± 0.9 µM; in series [6] (72 h incubation, read-out: Time-dependent in vitro cytotoxicity (IC50), A2780, 72 h), 2 ± 0.1 µM; in series [6] (setting [7]), 3.4 ± 0.9 µM; in series [6] (read-out: Time-dependent in vitro cytotoxicity (IC50), A2780, 48 h, 48 h incubation) it was 2.1 ± 0.4 µM. In addition, the “Excess of intracellular gold level over [Au(kin)(PPh3)] and [Au(PPh3)Cl]” value with A2780 cells [3] (A2780 cells, after 12 h of incubation) was “up to 4 times”. Moreover, in the series on A2780 cells [4], the “Population of cells in G2/M phase” value is listed as 23.3 ± 3.6%. Further, the “Population of cells in S phase” value in the series on A2780 cells [4] stood at 19.4 ± 0.5%. The “Number of cells in the G0/G1 phase” value in the series on A2780 cells [4] (vs untreated control) is on record as “significant decrease in the number of cells in the G0/G1 phase”. The “Activation of caspases 3/7” value with caspases 3/7 was “the most effective gold(I) complex”. Moreover, in the series with NF-κB, the “Effect on LPS-stimulated NF-κB activity” value is on record as “the only gold(I) complex able to inhibit the activity of pro-inflammatory transcription factor NF-κB”.

Regarding `[Cl][Au].c1ccc(P(c2ccccc2)c2ccccc2)cc1` [[Au(PPh3)Cl]], in the series on A2780 cells [1], the “Cells in early stage apoptosis (Annexin V+/PI-)” value is given as “around 10%” and the “Cells in late stage apoptosis (Annexin V+/PI+)” value was “around 30%”. Also, in series [2], the IC50 worked out at 17 ± 0.5 µM. For the same compound, in the series on A2780 cells [3], the “Intracellular Au content, 2 h” value is 84.6 ng/10^6 cells; the “Intracellular Au content, 6 h” value is given as 106.1 ng/10^6 cells; the “Intracellular Au content, 12 h” value is listed as 80.7 ng/10^6 cells; the “Intracellular Au content, 24 h” value came out at 97.6 ng/10^6 cells. Also, in the series on A2780 cells [3], the “Intracellular Au content, 48 h” value is listed as 304.2 ng/10^6 cells and the “Intracellular Au content, 72 h” value came to 415.8 ng/10^6 cells. In the series on A2780 cells [4], the “Effect on the cell cycle” value is listed as “practically no effect on the cell cycle”. Also, in series [5], the IC50 came to 9.9 ± 0.4 µM. In addition, the “Cells with active executioner caspases 3/7” value in the series with caspases 3/7 is given as “around 50%”. The “Effect on LPS-stimulated NF-κB activity” value with NF-κB is “possessed some activity”. Further, in series [6] (setting [7]), the IC50 was 3.5 ± 0.5 µM. Moreover, the IC50 in series [6] (read-out: IC50, A2780, after 48 h and 72 h incubation, 48 h and 72 h incubation, insignificant changes) is roughly 3 µM.

Source of the values: PMC9916778 (International Journal of Molecular Sciences, 2023).
